Data reported in PMC8739347 (Tropical Medicine and Health, 2022).

What was measured:
[1] = tested on: SARS-CoV-2 original Wuhan strain (hCoV-19/Japan/TY/WK-521,2019); assay: Antiviral activity assay in Vero E6 cells, qRT-PCR of supernatant; type: cell-based; details: Severe acute respiratory syndrome coronavirus 2, Vero C1008, Vero E6, 72 h pretreatment, MOI 0.02, 48 h pi, compound concentration (for 5-ALA/SFC the 5-ALA concentration, ratio 4:1)
[2] = set-up: method as in PMID 11961050; details: oral route; cited from earlier work
[3] = Cell viability assay (MTT); type: cell-based; details: African green monkey, Vero E6 cells; Vero E6, 3 days, in parallel with Delta antiviral assay; 5-ALA concentration
Procedure: (§1) Vero E6 cells in 96-well plates were treated with samples for 3 days, and a cell viability assay was conducted in parallel with an antiviral assay. To determine the concentration that triggered a 50% reduction in cell survival (CC50), the results of the cell viability assay were evaluated by 3-(4,5-dimethylthiazol-2-yl)-2,5-diphenyl tetrazolium bromide according to the manufacturer’s instructions (Promega, Madison, WI, USA). Optical density was measured at 570 nm using a microplate reader (Synergy H1 M; BioTek Instruments, Winooski, VT, USA). Cell viability was determined using the following equation: cell viability (%) = (sample value)/(cell control) × 100. In addition, viral inhibition by 50% (IC50) was calculated as viral inhibition (%) = quantity of virus copies in (virus control − sample)/virus control × 100.

[4] = tested on: Vero E6 cells; assay: Cell viability assay (MTT); type: cell-based; details: Vero E6, 3 days, 5-ALA concentration
Procedure: as §1

[5] = tested on: SARS-CoV-2; set-up: method as in PMID 31781665; details: SFC only; cited from earlier work

Compound	IC50 [1]	bioavailability [2]	CC50 at 3 days [3]	CC50 ([4]; in parallel with Alpha antiviral assay)	CC50 ([4]; in parallel with Beta antiviral assay)	CC50 ([4]; in parallel with Gamma antiviral assay)	CC50 ([4]; in parallel with Wuhan antiviral assay)	antiviral activity [5]
NCC(=O)CCC(=O)O [5-ALA, 5-aminolevulinic acid]	0.207 mM	high bioavailability	> 2 mM	> 2 mM	> 2 mM	> 2 mM	> 2 mM	
CCC(CC)COC(=O)[C@H](C)N[P@](=O)(OC[C@H]1O[C@@](C#N)(c2ccc3c(N)ncnn23)[C@H](O)[C@@H]1O)Oc1ccccc1 [remdesivir, Remdesivir]	0.0001 to 0.001 mM							
Sodium ferrous citrate [SFC]								did not show antiviral activity
